The text below walks through data of PMC7578299, “The antiviral effects of baloxavir marboxil against influenza A virus infection in ferrets” (Influenza and Other Respiratory Viruses, 2020).

What all share (format): in vitro ADME
A short description of data set [1]: Metabolic stability in liver microsomes, monkey. Conditions: for % Residual in liver microsome: monkey, 2 μmol/L, pH 7.4. The method, then:
(§1) Liver microsomes were prepared from ferrets, rats, dogs, and monkeys, as previously described. ^28 Human liver microsomes were obtained from Sekisui‐XenoTech, LLC and pooled (n = 15). Metabolic stability of the compounds in liver microsomes was tested in duplicate. Oseltamivir and cefcapene pivoxil were used as reference compounds. Liver microsomes at 0.5 mg/mL concentration (final volume of 0.2 mL) were incubated in Tris‐HCl buffer (pH 7.4), containing 50 mmol/L Tris‐HCl, 150 mmol/L KCl, 10 mmol/L MgCl2. The hydrolysis reaction was initiated by applying the test compound solution (final concentration 2 μmol/L). After incubation for 10, 20, and 30 minutes at 37°C, the hydrolysis was terminated by the addition of twofold volume of ice‐cold acetonitrile/methanol (1:1, v/v). Samples were centrifuged at 3000 rpm for 10 minutes prior to LC‐MS/MS analysis of compounds in the supernatants.
In general terms: Liver microsomes are vesicles of endoplasmic reticulum, rich in cytochrome P450 enzymes.

A short description of data set [2]: Metabolic stability in liver microsomes, ferret. To be noted: for % Residual in liver microsome: ferret, 2 μmol/L, pH 7.4. On the procedure:
as §1

Data set [3] is described as follows: Metabolic stability in liver microsomes, human. To be noted: 2 μmol/L, pH 7.4. On the procedure:
as §1

The nature of data set [4]: Metabolic stability in liver microsomes, dog. Conditions: for % Residual in liver microsome: 2 μmol/L, pH 7.4. On the procedure:
as §1

A short description of data set [5]: Metabolic stability in liver microsomes, rat. To be noted: for % Residual in liver microsome: 2 μmol/L, pH 7.4. The method, then: as §1
Data set [6] can be described thus: Metabolic stability test, control (microsome free). Conditions: 2 μmol/L, pH 7.4. The method, then:
as §1

As for `CC/C=C(\C(=O)N[C@@H]1C(=O)N2C(C(=O)OCOC(=O)C(C)(C)C)=C(COC(N)=O)CS[C@H]12)c1csc(N)n1.Cl` [Cefcapene pivoxil, cefcapene pivoxil hydrochloride], the “% Residual in liver microsome Individual value” in data set [1] is 0.0%.

For `CCOC(=O)C1=C[C@@H](OC(CC)CC)[C@H](NC(C)=O)[C@@H](N)C1` [OSP, oseltamivir phosphate], the “% Residual in liver microsome” value worked out at 106.5% in data set [2] (10 min); 107.2% in data set [2] (20 min); 109.0% in data set [2] (30 min); 89.8% in data set [3] (10 min); 64.8% in data set [3] (20 min); 49.7% in data set [3] (30 min). The “% Residual in liver microsome” value amounted to 115.8% in data set [4] (10 min); 109.6% in data set [4] (20 min); 110.5% in data set [4] (30 min); 110.8% in data set [5] (10 min); 119.2% in data set [5] (20 min); 117.3% in data set [5] (30 min). For the same molecule, the “% Residual in liver microsome” value in data set [1] (10 min) is 73.6%; in data set [1] (20 min), 59.1%; in data set [1] (30 min), 45.2%. The “stability in liver microsomes (in words)” value in data set [2] (microsomes), in data set [4] (microsomes) and in data set [5] (microsomes) was “stable” in each case. For the same molecule, the “% Residual, Control (Microsome free)” value in data set [6] (10 min) was 106.4%; in data set [6] (20 min), 105.4%; in data set [6] (30 min), 111.3%.
